This note sets out measurements from US10463658B2, “Method of inhibiting FLT3 kinase” (AROG Pharmaceuticals, LLC, priority 2013, dated 2019).

pIC50: −log10 of the molar value.

The assay concerns Molm 13-RES-luc cells that expressed FLT3-ITD/D835Y. The assay is described as follows: MTT assay in tandutinib-resistant Molm 13-RES-luc cells. It counts as cell-based. Conditions: Homo sapiens, tandutinib resistant Molm 13 cells, mean of 3 studies with 6 replicates each (n=18), read-out: IC50 pFLT3 (text: cell viability, MTT assay). On the technique in general: Tetrazolium assays rely on reduction of a dye to a coloured formazan, in cell work by metabolically active cells.

For orientation: pIC50 means the negative decadic logarithm of the IC50, by convention in mol/L. With `CC1(COc2ccc3c(c2)ncn3-c2ccc3cccc(N4CCC(N)CC4)c3n2)COC1` [Crenolanib, reference compound], the pIC50 was 8.48.
